Among the data in patent publication US20250346592A1 (Celgene Corporation, priority 2022, published 2025) are IC50 values, retold here.

Chain of hPAD4 enzyme (Q9UM07 whole entry): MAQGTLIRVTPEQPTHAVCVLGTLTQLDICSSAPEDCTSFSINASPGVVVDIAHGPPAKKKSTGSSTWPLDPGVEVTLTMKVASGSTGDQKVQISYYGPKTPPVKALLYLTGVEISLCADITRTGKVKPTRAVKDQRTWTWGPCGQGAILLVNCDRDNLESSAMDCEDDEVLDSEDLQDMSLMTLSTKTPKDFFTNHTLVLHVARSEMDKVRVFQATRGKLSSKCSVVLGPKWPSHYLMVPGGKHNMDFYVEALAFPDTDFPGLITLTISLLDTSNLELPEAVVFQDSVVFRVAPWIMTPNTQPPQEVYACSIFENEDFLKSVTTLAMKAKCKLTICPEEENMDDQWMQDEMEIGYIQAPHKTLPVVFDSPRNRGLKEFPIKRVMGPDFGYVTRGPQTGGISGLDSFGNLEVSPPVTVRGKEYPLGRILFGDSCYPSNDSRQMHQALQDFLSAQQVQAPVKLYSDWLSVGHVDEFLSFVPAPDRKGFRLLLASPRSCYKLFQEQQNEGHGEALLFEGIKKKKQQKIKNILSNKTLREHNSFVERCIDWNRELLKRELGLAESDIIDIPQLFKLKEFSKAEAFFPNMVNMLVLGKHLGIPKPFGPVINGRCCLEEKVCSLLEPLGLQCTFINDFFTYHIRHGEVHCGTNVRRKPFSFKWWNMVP

The target in the assay is hPAD4 enzyme (Homo sapiens (Human), UniProt Q9UM07). The assay can be described thus: RFMS2 assay (RapidFire mass spectrometry, TSTGGRQGSHH peptide substrate). The format is biochemical. The note with it: 35 nM recombinant human PAD4, 500 μM TSTGGRQGSHH peptide, 30 minutes at room temperature; read-out: RFMS 2 IC50. Put shortly:
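Recombinant human PAD4 (35 nM) with 500 μM TSTGGRQGSHH peptide in HEPES pH 7.4, 200 mM NaCl, 2 mM CaCl2, 5 mM DTT, 1.2% DMSO, 30 min at room temperature; 3-fold compound series, top 20 μM. Quenched with formic acid; substrate and citrullinated product quantified by RapidFire MRM mass spectrometry for IC50.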
As for `Cn1c(-c2cc3cccc(OCc4cnco4)c3n2CC2CC2)nc2cc3c(cc21)CCN(C[C@H](N)CF)C3=O` [Example 166, (S)-6-(2-amino-3-fluoropropyl)-2-(1-(cyclopropyl-methyl)-7-(oxazol-5-ylmethoxy)-1H-indol-2-yl)-1-methyl-1,6,7,8-tetrahydro-5H-imidazo[4,5-g] isoquinolin-5-one], the IC50 (as a rule, the point on the concentration scale where inhibition reaches its midpoint) lay in the range of 101 to 500 nM.

For the compound `Cn1c(-c2cc3cccc(OCc4ccon4)c3n2CC2CC2)nc2cc3c(cc21)CCN(C[C@H](N)CF)C3=O` [Example 167, (S)-6-(2-amino-3-fluoropropyl)-2-(1-(cyclopropylmethyl)-7-(isoxazol-3-ylmethoxy)-1H-indol-2-yl)-1-methyl-1,6,7,8-tetrahydro-5H-imidazo[4,5-g]isoquinolin-5-one], the IC50 lay in the range of 101 to 500 nM.

As for `Cn1c(-c2cc3cccc(OC[C@H]4CNC(=O)O4)c3n2CC2CC2)nc2cc3c(cc21)CCN(C[C@H](N)CF)C3=O` [Example 168, (R)-5-(((2-(6-((S)-2-amino-3-fluoropropyl)-1-methyl-5-oxo-5,6,7,8-tetrahydro-1H-imidazo [4,5-g]isoquinolin-2-yl)-1-(cyclopropylmethyl)-1H-indol-7-yl)oxy)methyl)oxazolidin-2-one], the IC50 lay within 11 to 100 nM.

On to `Cn1c(-c2cc3cccc(OCCc4ccon4)c3n2CC2CC2)nc2cc3c(cc21)CCN(C[C@H](N)CF)C3=O` [Example 170, (S)-6-(2-amino-3-fluoropropyl)-2-(1-(cyclopropyl-methyl)-7-(2-(isoxazol-3-yl)ethoxy)-1H-indol-2-yl)-1-methyl-1,6,7,8-tetrahydro-5H-imidazo[4,5-g] isoquinolin-5-one], for which the IC50 fell in the range of 101 to 500 nM.

For the compound `Cn1c(-c2cc3cccc(OCc4ccnnc4)c3n2CC2CC2)nc2cc3c(cc21)CCN(C[C@H](N)CF)C3=O` [Example 171, (S)-6-(2-amino-3-fluoropropyl)-2-(1-(cyclopropylmethyl)-7-(pyridazin-4-ylmethoxy)-1H-indol-2-yl)-1-methyl-1,6,7,8-tetrahydro-5H-imidazo [4,5-g]isoquinolin-5-one], the IC50 fell in the range of 101 to 500 nM.

On to `Cn1c(-c2cc3cccc(OCC4COC(=O)N4)c3n2CC2CC2)nc2cc3c(cc21)CCN(C[C@H](N)CF)C3=O` (stereo partly drawn) [Example 172, 4-(((2-(6-((S)-2-amino-3-fluoropropyl)-1-methyl-5-oxo-5,6,7,8-tetrahydro-1H-imidazo[4,5-g]isoquinolin-2-yl)-1-(cyclopropylmethyl)-1H-indol-7-yl)oxy)methyl)oxazolidin-2-one], for which the IC50 is 11 to 100 nM.

For the compound `Cn1c(-c2cc3cccc(OCCc4cc[nH]n4)c3n2CC2CC2)nc2cc3c(cc21)CCN(C[C@H](N)CF)C3=O` [Example 173, (S)-2-(7-(2-(1H-pyrazol-3-yl)ethoxy)-1-(cyclopropylmethyl)-1H-indol-2-yl)-6-(2-amino-3-fluoropropyl)-1-methyl-1,6,7,8-tetrahydro-5H-imidazo [4,5-g]isoquinolin-5-one], the IC50 is 11 to 100 nM.

For the compound `Cn1c(-c2cc3cccc(OCc4ccno4)c3n2CC2CC2)nc2cc3c(cc21)CCN(C[C@H](N)CF)C3=O` [Example 175, (S)-6-(2-amino-3-fluoropropyl)-2-(1-(cyclopropyl-methyl)-7-(isoxazol-5-ylmethoxy)-1H-indol-2-yl)-1-methyl-1,6,7,8-tetrahydro-5H-imidazo[4,5-g] isoquinolin-5-one], the IC50 was 101 to 500 nM.

Turning to `Cn1c(-c2cc3cccc(OCc4nnco4)c3n2CC2CC2)nc2cc3c(cc21)CCN(C[C@H](N)CF)C3=O` [Example 176, (S)-2-(7-((1,3,4-oxadiazol-2-yl)methoxy)-1-(cyclopropylmethyl)-1H-indol-2-yl)-6-(2-amino-3-fluoropropyl)-1-methyl-1,6,7,8-tetrahydro-5H-imidazo[4,5-g]isoquinolin-5-one], the IC50 was 101 to 500 nM.

As for `Cc1nnc(COc2cccc3cc(-c4nc5cc6c(cc5n4C)CCN(C[C@H](N)CF)C6=O)n(CC4CC4)c23)o1` [Example 177, (S)-6-(2-amino-3-fluoropropyl)-2-(1-(cyclopropyl-methyl)-7-((5-methyl-1,3,4-oxadiazol-2-yl)methoxy)-1H-indol-2-yl)-1-methyl-1,6,7,8-tetrahydro-5H-imidazo[4,5-g]isoquinolin-5-one], the IC50 is 101 to 500 nM.

`Cn1c(-c2cc3cccc(OCCn4cccc4)c3n2CC2CC2)nc2cc3c(cc21)CCN(C[C@H](N)CF)C3=O` [Example 180, (S)-2-(7-(2-(1H-pyrrol-1-yl)ethoxy)-1-(cyclopropyl-methyl)-1H-indol-2-yl)-6-(2-amino-3-fluoropropyl)-1-methyl-1,6,7,8-tetrahydro-5H-imidazo[4,5-g] isoquinolin-5-one]: the IC50 was in the range of 101 to 500 nM.

On to `Cc1nncn1CCOc1cccc2cc(-c3nc4cc5c(cc4n3C)CCN(C[C@H](N)CF)C5=O)n(CC3CC3)c12` [Example 182, (S)-6-(2-amino-3-fluoropropyl)-2-(1-(cyclopropylmethyl)-7-(2-(3-methyl-4H-1,2,4-triazol-4-yl)ethoxy)-1H-indol-2-yl)-1-methyl-1,6,7,8-tetrahydro-5H-imidazo[4,5-g]isoquinolin-5-one], for which the IC50 was 101 to 500 nM.

For `Cn1c(-c2cc3cccc(OCc4cccnn4)c3n2CC2CC2)nc2cc3c(cc21)CCN(C[C@H](N)CF)C3=O` [Example 183, (S)-6-(2-amino-3-fluoropropyl)-2-(1-(cyclopropylmethyl)-7-(pyridazin-3-ylmethoxy)-1H-indol-2-yl)-1-methyl-1,6,7,8-tetrahydro-5H-imidazo[4,5-g]isoquinolin-5-one], the IC50 fell in the range of 101 to 500 nM.

With `Cn1c(-c2cc3cccc(OCC4CC(F)(F)C(=O)N4)c3n2CC2CC2)nc2cc3c(cc21)CCN(C[C@H](N)CF)C3=O` (stereo partly drawn) [Example 185, 6-((S)-2-amino-3-fluoropropyl)-2-(1-(cyclopropylmethyl)-7-((4,4-difluoro-5-oxopyrrolidin-2-yl)methoxy)-1H-indol-2-yl)-1-methyl-1,6,7,8-tetrahydro-5H-imidazo[4,5-g]isoquinolin-5-one], the IC50 lay in the range of 101 to 500 nM.

On to `Cn1c(-c2cc3cccc(OC[C@@H]4COCCN4)c3n2CC2CC2)nc2cc3c(cc21)CCN(C[C@H](N)CF)C3=O` [Example 187, 6-((S)-2-amino-3-fluoropropyl)-2-(1-(cyclopropylmethyl)-7-(((S)-morpholin-3-yl)methoxy)-1H-indol-2-yl)-1-methyl-1,6,7,8-tetrahydro-5H-imidazo[4,5-g]isoquinolin-5-one], for which the IC50 is greater than 1000 nM.

With `Cn1c(-c2cc3cccc(OC[C@H]4COCCN4)c3n2CC2CC2)nc2cc3c(cc21)CCN(C[C@H](N)CF)C3=O` [Example 188, 6-((S)-2-amino-3-fluoropropyl)-2-(1-(cyclopropylmethyl)-7-(((R)-morpholin-3-yl)methoxy)-1H-indol-2-yl)-1-methyl-1,6,7,8-tetrahydro-5H-imidazo[4,5-g]isoquinolin-5-one], the IC50 lay in the range of 501 to 1000 nM.

Take `Cn1c(-c2cc3cccc(OCc4cocn4)c3n2CC2CC2)nc2cc3c(cc21)CCN(C[C@H](N)CF)C3=O` [Example 189, (S)-6-(2-amino-3-fluoropropyl)-2-(1-(cyclopropylmethyl)-7-(oxazol-4-ylmethoxy)-1H-indol-2-yl)-1-methyl-1,6,7,8-tetrahydro-5H-imidazo[4,5-g]isoquinolin-5-one]: the IC50 fell in the range of 101 to 500 nM.
